# In patent US8129399B2, “Aminopyrimidines useful as kinase inhibitors” (Vertex Pharmaceuticals Incorporated, priority 2005, dated 2012):
# Where two headings read alike, the source gives them in different places.
# Assays:
# Colo205 cells = assay: Colo205 cell proliferation, 3H thymidine incorporation; format: cell-based; conditions: Homo sapiens
# Method: Colo205 cells were seeded in 96 well plates and serially diluted compound was added to the wells in duplicate. Control groups included untreated cells, the compound diluent (0.1% DMSO alone) and culture medium without cells.
# To measure proliferation, 3 h prior to the end of the experiment 0.5 μCi of 3H thymidine was added to each well. Cells were then harvested and the incorporated radioactivity counted on a Wallac microplate beta-counter. Cell viability was assessed using Promega CellTiter 96AQ to measure MTS conversion. Dose response curves were calculated using either Prism 3.0 (GraphPad) or SoftMax Pro 4.3.1 LS (Molecular Devices) software.
# [1] = molecular target: N-terminally truncated (Δ 27) Abl kinase (Homo sapiens, UniProt P00519); assay: Abl kinase activity inhibition assay, coupled enzyme; format: biochemical
# Method: Reactions were carried out in a solution containing 100 mM HEPES (pH 7.5), 10 mM MgCl2, 25 mM NaCl, 300 μM NADH, 1 mM DTT and 3% DMSO. […] Final concentrations of the components of the coupled enzyme system were 2.5 mM phosphoenolpyruvate, 200 μM NADH, 60 μg/ml pyruvate kinase and 20 μg/ml lactate dehydrogenase.
# An assay stock buffer solution was prepared containing all of the reagents listed above with the exception of ATP and the test compound of interest. […] Rates of reaction were obtained using a Molecular Devices Spectramax plate reader (Sunnyvale, Calif.) over 10 min at 30° C. The Ki values were determined from the residual rate data as a function of inhibitor concentration using nonlinear regression (Prism 3.0, Graphpad Software, San Diego, Calif.).
# Aurora-2 (Aurora A) = molecular target: T1, Aurora-2 (Aurora A) (Homo sapiens, UniProt O14965); assay: Aurora-2 (Aurora A) inhibition assay, coupled enzyme; format: biochemical
# T1 sequence (O14965 1-403): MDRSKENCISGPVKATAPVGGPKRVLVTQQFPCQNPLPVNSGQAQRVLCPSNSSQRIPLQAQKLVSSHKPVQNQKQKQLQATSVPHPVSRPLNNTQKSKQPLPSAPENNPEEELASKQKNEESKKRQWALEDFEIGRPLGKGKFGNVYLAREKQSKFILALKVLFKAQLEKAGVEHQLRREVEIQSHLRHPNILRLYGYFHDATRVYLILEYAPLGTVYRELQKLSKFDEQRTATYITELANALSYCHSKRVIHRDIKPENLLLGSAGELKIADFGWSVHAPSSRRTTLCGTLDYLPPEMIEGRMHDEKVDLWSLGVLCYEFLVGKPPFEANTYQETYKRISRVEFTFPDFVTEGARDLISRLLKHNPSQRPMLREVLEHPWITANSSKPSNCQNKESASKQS
# Method: Assays were carried out in a mixture of 100 mM Hepes (pH7.5), 10 mM MgCl2, 1 mM DTT, 25 mM NaCl, 2.5 mM phosphoenolpyruvate, 300 μM NADH, 30 μg/ml pyruvate kinase and 10 μg/ml lactate dehydrogenase. […] Assays were carried out at 30° C. and in the presence of 40 nM Aurora-2.
# An assay stock buffer solution was prepared containing all of the reagents listed above, with the exception of Aurora-2 and the test compound of interest. […] The plate was preincubated for 10 minutes at 30° C. and the reaction initiated by addition of 10 μl of Aurora-2. Initial reaction rates were determined with a Molecular Devices SpectraMax Plus plate reader over a 10 minute time course. IC50 and Ki data were calculated from non-linear regression analysis using the Prism software package (GraphPad Prism version 3.0cx for Macintosh, GraphPad Software, San Diego Calif., USA).
# Aurora-1 (Aurora B) = Aurora-1 (Aurora B) (Homo sapiens, UniProt Q96GD4); assay: Aurora-1 (Aurora B) inhibition assay (radiometric); format: biochemical; conditions: 800 μM ATP; read-out: Aurora B Ki
# Method: An assay buffer solution was prepared which consisted of 25 mM HEPES (pH 7.5), 10 mM MgCl2, 0.1% BSA and 10% glycerol. […] To 22 μL of the Aurora-B solution, in a 96-well plate, was added 2 μl of a compound stock solution in DMSO and the mixture allowed to equilibrate for 10 minutes at 25° C. The enzyme reaction was initiated by the addition of 16 μl stock [γ-^33P]-ATP solution (˜20 nCi/μL) prepared in assay buffer, to a final assay concentration of 800 μM. The reaction was stopped after 3 hours by the addition of 16 μL 500 mM phosphoric acid and the levels of ^33P incorporation into the peptide substrate were determined by the following method.
# A phosphocellulose 96-well plate (Millipore, Cat no. MAPHNOB50) was pre-treated with 100 μL of a 100 mM phosphoric acid prior to the addition of the enzyme reaction mixture (40 μL). The solution was left to soak on to the phosphocellulose membrane for 30 minutes and the plate subsequently washed four times with 200 μL of a 100 mM phosphoric acid. […] Levels of non-enzyme catalyzed background radioactivity were determined by adding 16 μL of the 500 mM phosphoric acid to control wells, containing all assay components (which acts to denature the enzyme), prior to the addition of the [γ-^33P]-ATP solution. Levels of enzyme catalyzed ^33P incorporation were calculated by subtracting mean background counts from those measured at each inhibitor concentration. […] Ki values were calculated from initial rate data by non-linear regression using the Prism software package (Prism 3.0, Graphpad Software, San Diego, Calif.).
# Arg (Abl-2) = Arg (Abl-2) (Homo sapiens, UniProt P42684); assay: Arg (Abl-2) inhibition screen; format: biochemical; conditions: Table 5; ATP at or close to Km
# Description: (§1) Compound(s) were screened for their ability to inhibit Arg (Abl-2), FGFR1, MLK1, Tie2, and TrkA using screening methods known to one of ordinary skill in the art. All of the above enzymes were screened with ATP concentrations at or close to the Km for ATP.
# FGFR1 = FGFR1 (Homo sapiens, UniProt P11362); assay: FGFR1 inhibition screen; format: biochemical; conditions: Table 5; ATP at or close to Km
# Description: as §1
# [2] = COLO 205, read-out: Colo205 inh 3H-Thy incorporation after 72 hours IC50 (uM)
# [3] = 400 μM ATP, 40 nM Aurora-2, read-out: Aurora A Ki
# [4] = COLO 205, read-out: Colo205 inh 3H-Thy incorporation after 96 hours IC50 (uM)
# Aurora-1 (Aurora B), sequence (Q96GD4 whole entry): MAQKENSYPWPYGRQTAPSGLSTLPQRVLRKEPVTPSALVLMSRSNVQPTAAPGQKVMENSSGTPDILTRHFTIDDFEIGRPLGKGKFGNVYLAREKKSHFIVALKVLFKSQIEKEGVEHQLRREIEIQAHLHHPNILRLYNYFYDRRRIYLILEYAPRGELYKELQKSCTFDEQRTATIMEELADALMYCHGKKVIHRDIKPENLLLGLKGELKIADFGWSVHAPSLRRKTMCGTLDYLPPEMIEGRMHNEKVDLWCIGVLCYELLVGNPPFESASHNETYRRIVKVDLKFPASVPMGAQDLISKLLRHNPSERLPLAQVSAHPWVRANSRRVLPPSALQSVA
# N-terminally truncated (Δ 27) Abl kinase, sequence (P00519 28-1130 limits assumed, stated change not applied): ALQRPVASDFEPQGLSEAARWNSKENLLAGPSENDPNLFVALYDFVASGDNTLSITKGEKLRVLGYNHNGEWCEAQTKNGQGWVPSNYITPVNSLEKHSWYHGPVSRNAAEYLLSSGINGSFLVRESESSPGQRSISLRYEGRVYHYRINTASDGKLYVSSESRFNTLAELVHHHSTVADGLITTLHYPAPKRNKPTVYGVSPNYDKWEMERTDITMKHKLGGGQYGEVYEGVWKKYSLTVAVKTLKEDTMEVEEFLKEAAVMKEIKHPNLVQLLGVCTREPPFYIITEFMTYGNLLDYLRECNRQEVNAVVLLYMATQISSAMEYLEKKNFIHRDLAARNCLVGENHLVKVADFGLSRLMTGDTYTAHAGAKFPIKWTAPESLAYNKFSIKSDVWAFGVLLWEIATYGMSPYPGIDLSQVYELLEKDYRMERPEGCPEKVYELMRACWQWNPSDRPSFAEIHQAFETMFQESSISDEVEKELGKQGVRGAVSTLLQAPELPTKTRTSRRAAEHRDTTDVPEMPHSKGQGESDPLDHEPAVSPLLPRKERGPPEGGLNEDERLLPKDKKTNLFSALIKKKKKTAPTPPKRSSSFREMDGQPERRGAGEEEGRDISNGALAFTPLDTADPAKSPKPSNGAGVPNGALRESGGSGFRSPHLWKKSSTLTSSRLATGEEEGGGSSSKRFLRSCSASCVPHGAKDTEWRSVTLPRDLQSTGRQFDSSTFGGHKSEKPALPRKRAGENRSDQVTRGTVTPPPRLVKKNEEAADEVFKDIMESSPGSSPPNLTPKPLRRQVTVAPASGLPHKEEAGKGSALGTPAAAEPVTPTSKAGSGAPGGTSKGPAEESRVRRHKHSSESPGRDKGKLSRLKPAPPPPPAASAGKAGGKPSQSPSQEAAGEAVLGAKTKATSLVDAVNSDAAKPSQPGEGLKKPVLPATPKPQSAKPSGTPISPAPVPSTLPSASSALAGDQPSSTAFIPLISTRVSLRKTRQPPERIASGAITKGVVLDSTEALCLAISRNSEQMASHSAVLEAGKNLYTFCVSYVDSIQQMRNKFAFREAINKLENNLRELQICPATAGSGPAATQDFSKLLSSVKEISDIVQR
# Arg (Abl-2), sequence (P42684 whole entry, species assumed): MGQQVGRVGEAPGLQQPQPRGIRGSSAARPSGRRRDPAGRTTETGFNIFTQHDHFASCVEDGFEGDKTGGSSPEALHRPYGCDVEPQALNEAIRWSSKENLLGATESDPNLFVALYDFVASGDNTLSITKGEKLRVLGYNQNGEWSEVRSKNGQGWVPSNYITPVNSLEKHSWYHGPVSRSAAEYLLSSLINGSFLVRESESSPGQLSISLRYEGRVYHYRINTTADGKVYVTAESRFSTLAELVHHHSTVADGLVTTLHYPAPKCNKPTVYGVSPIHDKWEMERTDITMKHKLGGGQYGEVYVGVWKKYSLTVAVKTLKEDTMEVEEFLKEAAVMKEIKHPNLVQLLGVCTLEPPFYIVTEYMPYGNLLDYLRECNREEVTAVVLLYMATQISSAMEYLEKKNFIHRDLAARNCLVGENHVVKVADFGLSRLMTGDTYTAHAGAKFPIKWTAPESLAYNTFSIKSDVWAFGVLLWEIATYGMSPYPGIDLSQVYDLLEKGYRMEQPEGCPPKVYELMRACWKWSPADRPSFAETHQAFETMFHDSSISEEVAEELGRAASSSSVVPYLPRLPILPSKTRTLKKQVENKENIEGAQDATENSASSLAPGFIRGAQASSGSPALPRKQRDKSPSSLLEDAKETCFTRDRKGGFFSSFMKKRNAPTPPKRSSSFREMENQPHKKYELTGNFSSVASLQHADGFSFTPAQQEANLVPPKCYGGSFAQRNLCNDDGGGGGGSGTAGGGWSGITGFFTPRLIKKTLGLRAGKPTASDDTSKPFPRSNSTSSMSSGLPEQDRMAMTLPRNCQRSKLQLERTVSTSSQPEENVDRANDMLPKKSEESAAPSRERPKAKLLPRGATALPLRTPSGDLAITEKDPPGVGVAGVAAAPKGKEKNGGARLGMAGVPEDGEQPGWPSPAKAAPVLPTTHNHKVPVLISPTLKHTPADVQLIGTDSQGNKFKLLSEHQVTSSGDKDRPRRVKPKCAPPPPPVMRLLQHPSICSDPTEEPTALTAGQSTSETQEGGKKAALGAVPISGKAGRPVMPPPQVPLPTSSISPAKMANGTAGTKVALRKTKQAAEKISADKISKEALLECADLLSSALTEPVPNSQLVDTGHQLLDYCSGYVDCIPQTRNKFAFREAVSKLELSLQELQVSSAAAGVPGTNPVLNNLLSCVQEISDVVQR
# FGFR1, sequence (P11362 22-822, species assumed): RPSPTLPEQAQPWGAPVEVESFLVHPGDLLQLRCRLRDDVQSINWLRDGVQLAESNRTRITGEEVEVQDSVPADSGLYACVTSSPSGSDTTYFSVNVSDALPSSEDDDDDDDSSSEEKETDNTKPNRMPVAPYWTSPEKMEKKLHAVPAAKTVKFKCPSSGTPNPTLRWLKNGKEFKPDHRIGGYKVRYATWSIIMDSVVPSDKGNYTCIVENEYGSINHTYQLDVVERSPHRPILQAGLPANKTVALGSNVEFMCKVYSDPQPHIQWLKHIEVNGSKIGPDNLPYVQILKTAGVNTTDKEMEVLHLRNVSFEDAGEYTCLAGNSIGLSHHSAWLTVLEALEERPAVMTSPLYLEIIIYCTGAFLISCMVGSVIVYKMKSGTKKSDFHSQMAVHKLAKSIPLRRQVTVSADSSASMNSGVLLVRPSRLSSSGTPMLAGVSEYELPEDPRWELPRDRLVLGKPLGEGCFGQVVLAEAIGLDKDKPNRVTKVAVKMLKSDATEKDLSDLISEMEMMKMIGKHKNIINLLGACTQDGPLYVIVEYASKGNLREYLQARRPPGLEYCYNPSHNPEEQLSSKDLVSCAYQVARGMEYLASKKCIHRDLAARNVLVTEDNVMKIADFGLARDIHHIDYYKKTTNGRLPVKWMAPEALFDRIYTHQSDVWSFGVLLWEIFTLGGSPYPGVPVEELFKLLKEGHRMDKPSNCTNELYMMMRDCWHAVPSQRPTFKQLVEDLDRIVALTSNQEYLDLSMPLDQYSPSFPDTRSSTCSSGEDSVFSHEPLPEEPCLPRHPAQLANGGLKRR
"IC50 (Colo205 cells; COLO 205, Colo205 cells, 96 hours, read-out: Colo205 inh 3H-Thy incorporation after 96 hours IC50)",SMILES,IC50 (Colo205 cells; [2]),Ki [1],Ki (Aurora-2 (Aurora A); [3]),Ki (Aurora-1 (Aurora B)),IC50 (Colo205 cells; [4]),Ki (Aurora-2 (Aurora A)),IC50 (Arg (Abl-2)),IC50 (FGFR1)
–,CCC(=O)Nc1ccc(Sc2nc(Nc3cc(C)[nH]n3)cc(N3CC(F)(C4CC4)C3)n2)cc1 [Compound I-16],0.051 µM,170 nM,1 nM,24 nM,–,–,–,–
–,Cc1cc(Nc2cc(N3CC(F)(C4CC4)C3)nc(Sc3ccc(NC(=O)C4(C(F)(F)F)CC4)cc3)n2)[nH]n1 [Compound I-15],0.026 µM,57 nM,0.4 nM,9.6 nM,–,–,–,–
–,CCC(=O)Nc1ccc(Sc2nc(Nc3cc(C)n[nH]3)cc(N3CC(O)(CC(C)(C)C)C3)n2)cc1 [Compound I-1],–,–,–,7 nM,0.047 µM,0.4 nM,–,–
0.092 µM,CCC(=O)Nc1ccc(Sc2nc(Nc3cc(C)n[nH]3)cc(N3CC(O)(CC)C3)n2)cc1 [Compound I-4],–,–,1.7 nM,15 nM,–,–,–,–
–,Cc1cc(Nc2cc(N3CC(F)(C4CC4)C3)nc(Sc3ccc(NC(=O)CCC(F)(F)F)cc3)n2)[nH]n1 [Compound I-17],0.026 µM,22 nM,0.62 nM,12 nM,0.019 µM,–,210 nM,88 nM
